# Results published in patent US20250186437A1, “CARBOLINE COMPOUNDS AND USE THEREOF” (PTC Therapeutics, Inc., priority 2021, published 2025).
# Assays:
# MOLM-13 cells [1] = experiment: MOLM-13 Cell Proliferation Assay (indicator of DHODH inhibition); type: cell-based; conditions: Homo sapiens, 72 Hours of culture, CellTiter-Glo, no uridine
# Procedure, shortened: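 Proliferation readout via CellTiter-Glo luminescence after 72 h compound treatment (37 °C, 5% CO2, 0.5% DMSO) of MOLM-13 cells seeded at 10^4 per well in RPMI 1640/10% FBS, used as a DHODH-inhibition indicator since these cells rely on de novo pyrimidine synthesis.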
# MOLM-13 cells [2] = experiment: MOLM-13 Uridine Rescue Assay; type: cell-based; conditions: Homo sapiens; MOLM-13 cell proliferation with 100 μM Uridine added, 72 Hours of culture
# Description: The following assay was conducted to measure proliferation of MOLM-13 cells in the presence of each compound studied. This assay was included as an indicator of DHODH inhibition, as growth of MOLM-13 cells is known to depend on synthesis of pyrimidines using the de novo pathway, which can be blocked by inhibition of DHODH. • 1. MOLM-13 cells were cultured in RPMI 1640 medium+10% Fetal Bovine Serum (FBS). Only low passage cells (<20) were used for the compound tests • 2. On day 1, Log-phase growing Molm-13 Cells were counted and diluted to 10^5 cells/mL in RPMI 1640 medium+10% FBS • 3. 100 μL of diluted MOLM-13 cells in 96 well white plates were seeded, for a final density of 10^4 cells/well. • 4. 0.5 μL of pre-diluted 200× compounds or DMSO control was added to each well. The final DMSO concentration was 0.5%. • 5. After 72 Hours of culture at 37° C., 5% CO2, the plates were taken out and cooled to RT, then 50 μL CellTiter-Glo® (Promega) was added, and the composition was mixed at RT for 10 minutes. • 6. The plates were then read by ViewLux (Speed-fast, Gain-High, Bining-1X, 5 seconds).
# Several compounds were also tested in a Uridine rescue assay. In the Uridine rescue assay, using the procedure in Example 1 above, an additional plate of MOLM-13 cell cultures was prepared, to which 100 μM of Uridine was added in step 3 of the process.
IC50 (MOLM-13 cells [1]) [nM],IC50 (MOLM-13 cells [2]) [µM],Compound
2.2,15.6,"N#Cc1ccc(C2c3[nH]c4ccc(Cl)cc4c3CCN2c2nccc(C(F)(F)F)n2)c(F)c1 (stereo not drawn) [Compound 255, 4-{6-chloro-2-[4-(trifluoromethyl)pyrimidin-2-yl]-2,3,4,9-tetrahydro-1H-pyrido[3,4-b]indol-1-yl}-3-fluorobenzonitrile]"
2.9,10.5,"Nc1c(Cl)ccc2[nH]c3c(c12)CCN(c1nccc(C(F)(F)F)n1)C3c1cnc(N2CCOCC2)nc1 (stereo not drawn) [Compound 328, 6-chloro-1-[2-(morpholin-4-yl)pyrimidin-5-yl]-2-[4-(trifluoromethyl)pyrimidin-2-yl]-2,3,4,9-tetrahydro-1H-pyrido[3,4-b]indol-5-amine]"
10.6,0.72,"N#Cc1cc(C#N)nc(N2CCc3c([nH]c4ccc(Cl)cc34)[C@@H]2c2cnc(N3CCOCC3)nc2)n1 [Compound 398, 2-{(1S)-6-chloro-1-[2-(morpholin-4-yl)pyrimidin-5-yl]-1,3,4,9-tetrahydro-2H-pyrido[3,4-b]indol-2-yl}pyrimidine-4,6-dicarbonitrile]"
3.3,19.8,"Cc1ccc(C2c3[nH]c4ccc(Cl)cc4c3CCN2c2nccc(C(F)(F)F)n2)cc1 (stereo not drawn) [Compound 343, 6-chloro-1-(4-methylphenyl)-2-[4-(trifluoromethyl)pyrimidin-2-yl]-2,3,4,9-tetrahydro-1H-pyrido[3,4-b]indole]"
8,5.67,"N#Cc1ccnc(N2CCc3c([nH]c4ccc(Cl)cc34)C2c2cnc(N3CCOCC3)nc2)n1 (stereo not drawn) [Compound 359, 2-{6-chloro-1-[2-(morpholin-4-yl)pyrimidin-5-yl]-1,3,4,9-tetrahydro-2H-pyrido[3,4-b]indol-2-yl}pyrimidine-4-carbonitrile]"
2.1,8.47,"Nc1cc2[nH]c3c(c2cc1Cl)CCN(c1nccc(C(F)(F)F)n1)C3c1cnc(N2CCOCC2)nc1 (stereo not drawn) [Compound 311, 6-chloro-1-[2-(morpholin-4-yl)pyrimidin-5-yl]-2-[4-(trifluoromethyl)pyrimidin-2-yl]-2,3,4,9-tetrahydro-1H-pyrido[3,4-b]indol-7-amine]"
1,15.2,"Cc1ccc(C2c3[nH]c4ccc(Cl)cc4c3CCN2c2nc(C(F)(F)F)cc(C(F)(F)F)n2)c(F)c1F (stereo not drawn) [Compound 340, 2-[4,6-bis(trifluoromethyl)pyrimidin-2-yl]-6-chloro-1-(2,3-difluoro-4-methylphenyl)-2,3,4,9-tetrahydro-1H-pyrido[3,4-b]indole]"
0.5,8.55,"Cc1ccc(C2c3[nH]c4c(N)cc(Cl)cc4c3CCN2c2nccc(C(F)(F)F)n2)c(F)c1F (stereo not drawn) [Compound 248, 6-chloro-1-(2,3-difluoro-4-methylphenyl)-2-[4-(trifluoromethyl)pyrimidin-2-yl]-2,3,4,9-tetrahydro-1H-pyrido[3,4-b]indol-8-amine]"
13.4,9.72,"Cc1nc(C)nc(N2CCc3c([nH]c4ccc(Cl)cc34)C2c2ccc(N3CCOCC3)nc2)n1 (stereo not drawn) [Compound 324, 6-chloro-2-(4,6-dimethyl-1,3,5-triazin-2-yl)-1-[6-(morpholin-4-yl)pyridin-3-yl]-2,3,4,9-tetrahydro-1H-pyrido[3,4-b]indole]"
0.6,14.9,"Fc1cc2[nH]c3c(c2cc1Cl)CCN(c1nc(C(F)(F)F)cc(C(F)(F)F)n1)C3c1cccc(F)c1F (stereo not drawn) [Compound 157, 2-[4,6-bis(trifluoromethyl)pyrimidin-2-yl]-6-chloro-1-(2,3-difluorophenyl)-7-fluoro-2,3,4,9-tetrahydro-1H-pyrido[3,4-b]indole]"
0.4,3.12,"CN1CCN(c2ncc([C@H]3c4[nH]c5ccc(Cl)cc5c4CCN3c3nc(C(F)(F)F)nc(C(F)(F)F)n3)cn2)CC1 [Compound 420, (1S)-2-[4,6-bis(trifluoromethyl)-1,3,5-triazin-2-yl]-6-chloro-1-[2-(4-methylpiperazin-1-yl)pyrimidin-5-yl]-2,3,4,9-tetrahydro-1H-pyrido[3,4-b]indole]"
1,7.6,"Cc1cc(C(F)(F)F)nc(N2CCc3c([nH]c4ccc(Cl)cc34)C2c2ccc(C)c(F)c2F)n1 (stereo not drawn) [Compound 213, 6-chloro-1-(2,3-difluoro-4-methylphenyl)-2-[4-methyl-6-(trifluoromethyl)pyrimidin-2-yl]-2,3,4,9-tetrahydro-1H-pyrido[3,4-b]indole]"
7.9,7.68,"Cc1cc(N)c2[nH]c3c(c2c1)CCN(c1nccc(C(F)(F)F)n1)C3c1ccc(C)c(F)c1F (stereo not drawn) [Compound 272, 1-(2,3-difluoro-4-methylphenyl)-6-methyl-2-[4-(trifluoromethyl)pyrimidin-2-yl]-2,3,4,9-tetrahydro-1H-pyrido[3,4-b]indol-8-amine]"
1.9,6.56,"Cc1nc(C)nc(N2CCc3c([nH]c4ccc(Cl)cc34)C2c2ccc(C)c(F)c2F)n1 (stereo not drawn) [Compound 253, 6-chloro-1-(2,3-difluoro-4-methylphenyl)-2-(4,6-dimethyl-1,3,5-triazin-2-yl)-2,3,4,9-tetrahydro-1H-pyrido[3,4-b]indole]"
3,10.7,"Cc1ccc(C2c3[nH]c4ccc([N+](=O)[O-])cc4c3CCN2c2nccc(C(F)(F)F)n2)cc1 (stereo not drawn) [Compound 265, 1-(4-methylphenyl)-6-nitro-2-[4-(trifluoromethyl)pyrimidin-2-yl]-2,3,4,9-tetrahydro-1H-pyrido[3,4-b]indole]"
